Results published in US8748603B2, “Crystalline forms of N-[2-[[(2,3-difluorophenyl)methyl]THIO]-6-{[(1R,2S)-2,3-dihydroxy-1-methylpropyl]oxy}-4-pyrimidinyl]-1-azetidinesulfonamide” (AstraZeneca AB, priority 2010, dated 2014).

Test: Competitive slurry trials between A-form and D-form (thermodynamic stability)
Type: physicochemical
Conditions: for Solid form stability in competitive slurry: slurries containing A-form and D-form in methanol, held at about 5° C. to about 50° C.; for Relative thermodynamic stability of crystalline forms: D-form versus A-form, conclusion from competitive slurries in methanol, about 5° C. to about 50° C.
Method: Competitive slurry trials were performed between the A-form (obtained by Example 1) and the D-form (obtained by Example 2).
Competitive slurries containing the A-form and D-form in methanol were held at any temperatures ranging from about 5° C. to about 50° C.
Complete conversion of the A-form to the D-form takes place, if the slurry is held at a particular temperature for a sufficient duration of time.

| Solid form stability in competitive slurry | Compound | Relative thermodynamic stability of crystalline forms | Relative thermodynamic stability of crystalline forms (listed as Form D) |
| --- | --- | --- | --- |
| transforms to the D-form | C[C@@H](Oc1cc(NS(=O)(=O)N2CCC2)nc(SCc2cccc(F)c2F)n1)[C@@H](O)CO [A-form, N-[2-[[(2,3-difluorophenyl)methyl]thio]-6-{[(1R,2S)-2,3-dihydroxy-1-methylpropyl]oxy}-4-pyrimidinyl]-1-azetidinesulfonamide] |  |  |
| remained stable | C[C@@H](Oc1cc(NS(=O)(=O)N2CCC2)nc(SCc2cccc(F)c2F)n1)[C@@H](O)CO [D-form, N-[2-[[(2,3-difluorophenyl)methyl]thio]-6-{[(1R,2S)-2,3-dihydroxy-1-methylpropyl]oxy}-4-pyrimidinyl]-1-azetidinesulfonamide] | thermodynamically more stable form than the A-form | more thermodynamically stable than the A-form |
